Measurements from PubChem BioAssay (NCI).
Where “and” joins values, the source holds several entries; their conditions need not be identical. Equal values may be shown once.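 96-well plates; 48 h exposure; 5 concentrations. Endpoints by linear interpolation between flanking doses. Not reached: highest tested concentration assigned. At the GI50, growth is halved. The concentration for full growth arrest is given as TGI.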

Legend:
Assay in all cases: NCI-60 cell line screen, 48 h
NCI/ADR-RES ovarian = tested on: NCI/ADR-RES ovarian
SF-539 CNS = tested on: SF-539 CNS
SF-295 CNS = tested on: SF-295 CNS
NCI-H226 lung = tested on: NCI-H226 lung
HS 578T breast = tested on: HS 578T breast
KM12 colon = tested on: KM12 colon
MDA-MB-231 breast = tested on: MDA-MB-231 breast
DU-145 prostate = tested on: DU-145 prostate
HOP-92 NSCLC = tested on: HOP-92 NSCLC
RPMI-8226 leukemia = tested on: RPMI-8226 leukemia
K-562 leukemia = tested on: K-562 leukemia
RXF 393 renal = tested on: RXF 393 renal
TK-10 renal = tested on: TK-10 renal
COLO 205 colon = tested on: COLO 205 colon
OVCAR-8 ovarian = tested on: OVCAR-8 ovarian
MALME-3M melanoma = tested on: MALME-3M melanoma
BT-549 breast = tested on: BT-549 breast
OVCAR-4 ovarian = tested on: OVCAR-4 ovarian
SNB-19 CNS = tested on: SNB-19 CNS
HOP-62 NSCLC = tested on: HOP-62 NSCLC
SW-620 colon = tested on: SW-620 colon
PC-3 prostate = tested on: PC-3 prostate
CAKI-1 renal = tested on: CAKI-1 renal
A498 renal = tested on: A498 renal
NCI-H23 lung = tested on: NCI-H23 lung
SF-268 CNS = tested on: SF-268 CNS
OVCAR-3 ovarian = tested on: OVCAR-3 ovarian
HCC-2998 colon = tested on: HCC-2998 colon
OVCAR-5 ovarian = tested on: OVCAR-5 ovarian
UO-31 renal = tested on: UO-31 renal
CCRF-CEM leukemia = tested on: CCRF-CEM leukemia

**Q.** Which GI50 (NCI/ADR-RES ovarian) does the source give for CC(C)c1cc(C(=O)N2Cc3ccc(CN4CCN(C)CC4)cc3C2)c(O)cc1O here?
**A.** The GI50 was 245 nM and 779 nM.

**Q.** What about the TGI (NCI/ADR-RES ovarian) of the same molecule?
**A.** The TGI was over 90000 nM.

**Q.** And the GI50 (SF-539 CNS)?
**A.** Its GI50 is 1500 nM and 1000 nM.

**Q.** What about the TGI (SF-539 CNS) of the same molecule?
**A.** Its TGI is 24300 nM and 18000 nM.

**Q.** And the GI50 (SF-295 CNS)?
**A.** The GI50 was 37.1 nM and 158 nM.

**Q.** And the TGI (SF-295 CNS)?
**A.** The TGI was 2060 nM and 3240 nM.

**Q.** What about the GI50 (NCI-H226 lung) of the same molecule?
**A.** The GI50 was 414 nM and 553 nM.

**Q.** And the TGI (NCI-H226 lung)?
**A.** Its TGI is > 60300 nM and 50600 nM.

**Q.** What about the GI50 (HS 578T breast) of the same molecule?
**A.** Its GI50 is 716 nM and 1870 nM.

**Q.** And the TGI (HS 578T breast)?
**A.** Its TGI is 35300 nM and 43900 nM.

**Q.** And the GI50 (KM12 colon)?
**A.** The GI50 was 29.1 nM and 77.2 nM.

**Q.** And the GI50 (MDA-MB-231 breast)?
**A.** The GI50 was 390 nM and 443 nM.

**Q.** What about the TGI (MDA-MB-231 breast) of the same molecule?
**A.** Its TGI is 24800 nM and 13700 nM.

**Q.** And the GI50 (DU-145 prostate)?
**A.** The GI50 was 74.1 nM and 55.3 nM.

**Q.** And the TGI (DU-145 prostate)?
**A.** Its TGI is 24400 nM and 18800 nM.

**Q.** What about the GI50 (HOP-92 NSCLC) of the same molecule?
**A.** Its GI50 is 617 nM and 498 nM.

**Q.** What about the TGI (HOP-92 NSCLC) of the same molecule?
**A.** Its TGI is 35300 nM and 11000 nM.

**Q.** What about the TGI (RPMI-8226 leukemia) of the same molecule?
**A.** The TGI was > 100000 nM and 30200 nM.

**Q.** What about the GI50 (K-562 leukemia) of the same molecule?
**A.** Its GI50 is 47.2 nM and 207 nM.

**Q.** What about the TGI (K-562 leukemia) of the same molecule?
**A.** The TGI was > 100000 nM and 16200 nM.

**Q.** And the GI50 (RXF 393 renal)?
**A.** Its GI50 is 916 nM and 2360 nM.

**Q.** And the TGI (RXF 393 renal)?
**A.** The TGI was 30500 nM and 28800 nM.

**Q.** And the GI50 (TK-10 renal)?
**A.** The GI50 was 42.8 nM and 381 nM.

**Q.** What about the TGI (TK-10 renal) of the same molecule?
**A.** The TGI was 49800 nM.

**Q.** And the GI50 (COLO 205 colon)?
**A.** Its GI50 is 42.2 nM and 44.4 nM.

**Q.** And the GI50 (OVCAR-8 ovarian)?
**A.** Its GI50 is 60.4 nM and 300 nM.

**Q.** And the TGI (OVCAR-8 ovarian)?
**A.** Its TGI is over 100000 nM.

**Q.** What about the GI50 (MALME-3M melanoma) of the same molecule?
**A.** Its GI50 is 40.3 nM and 271 nM.

**Q.** And the TGI (MALME-3M melanoma)?
**A.** The TGI was 1260 nM and 1660 nM.

**Q.** And the GI50 (BT-549 breast)?
**A.** Its GI50 is 15900 nM and 2390 nM.

**Q.** And the TGI (BT-549 breast)?
**A.** The TGI was > 100000 nM and 30400 nM.

**Q.** What about the GI50 (OVCAR-4 ovarian) of the same molecule?
**A.** The GI50 was 5790 nM and 6390 nM.

**Q.** What about the TGI (OVCAR-4 ovarian) of the same molecule?
**A.** Its TGI is over 100000 nM.

**Q.** What about the GI50 (SNB-19 CNS) of the same molecule?
**A.** The GI50 was 872 nM and 847 nM.

**Q.** And the TGI (SNB-19 CNS)?
**A.** The TGI was over 100000 nM.

**Q.** What about the GI50 (HOP-62 NSCLC) of the same molecule?
**A.** Its GI50 is 128 nM and 656 nM.

**Q.** What about the TGI (HOP-62 NSCLC) of the same molecule?
**A.** The TGI was over 92200 nM.

**Q.** What about the GI50 (SW-620 colon) of the same molecule?
**A.** The GI50 was 37.6 nM and 55.7 nM.

**Q.** What about the TGI (SW-620 colon) of the same molecule?
**A.** Its TGI is 23600 nM and 14800 nM.

**Q.** What about the GI50 (PC-3 prostate) of the same molecule?
**A.** The GI50 was 1970 nM and 483 nM.

**Q.** And the TGI (PC-3 prostate)?
**A.** The TGI was over 100000 nM.

**Q.** What about the GI50 (CAKI-1 renal) of the same molecule?
**A.** Its GI50 is 52.2 nM and 512 nM.

**Q.** What about the TGI (A498 renal) of the same molecule?
**A.** The TGI was > 100000 nM and 15200 nM.

**Q.** And the GI50 (NCI-H23 lung)?
**A.** The GI50 was 60.6 nM and 458 nM.

**Q.** And the TGI (NCI-H23 lung)?
**A.** The TGI was 97400 nM and > 53900 nM.

**Q.** And the TGI (SF-268 CNS)?
**A.** Its TGI is 59100 nM and 54300 nM.

**Q.** And the GI50 (OVCAR-3 ovarian)?
**A.** Its GI50 is 79.3 nM and 452 nM.

**Q.** And the TGI (OVCAR-3 ovarian)?
**A.** Its TGI is 23400 nM and 20900 nM.

**Q.** What about the GI50 (HCC-2998 colon) of the same molecule?
**A.** The GI50 was 45.5 nM and 213 nM.

**Q.** What about the TGI (OVCAR-5 ovarian) of the same molecule?
**A.** Its TGI is over 100000 nM.

**Q.** And the GI50 (UO-31 renal)?
**A.** Its GI50 is 59.1 nM and 296 nM.

**Q.** And the TGI (UO-31 renal)?
**A.** The TGI was 23600 nM and 18100 nM.

**Q.** And the GI50 (CCRF-CEM leukemia)?
**A.** Its GI50 is 73.7 nM and 106 nM.
